Experimental data: patent US10150767B2, “Therapeutic compounds and uses thereof” (priority 2014, dated 2018)
pIC50: −log10 of the molar value.

Legend:
BRD4(BD1) = BRD4(BD1) (Homo sapiens (Human), UniProt O60885); test: BRD4 AlphaLisa binding assay; details: biotinylated H4-tetraacetyl peptide
From the text: IC50 Measurements for Inhibitors Using BRD4 AlphaLisa Binding Assay

BRD9 = BRD9 (Homo sapiens (Human), UniProt Q9H8M2); test: BRD9 AlphaLisa binding assay; details: biotinylated H4-tetraacetyl peptide
BRD9, sequence (Q9H8M2 134-239 limits assumed): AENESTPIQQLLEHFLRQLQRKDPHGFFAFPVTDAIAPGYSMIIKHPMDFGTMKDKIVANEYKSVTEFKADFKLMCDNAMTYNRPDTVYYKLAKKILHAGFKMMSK
Protocol: After 20 minutes incubation at room temperature AlphaLisa Streptavidin Acceptor Beads (Perkin-A[…]) and AlphaLisa Nickel donor beads (Perkin AS 10 ID) were added to a final concentration of 15 ug/mL each.

CECR2 = CECR2 (Homo sapiens (Human), UniProt Q9BXF3); test: CECR2 TR-FRET binding assay; details: biotinylated probe compound 1001, TR-FRET
CECR2, sequence (Q9BXF3 424-538 limits assumed): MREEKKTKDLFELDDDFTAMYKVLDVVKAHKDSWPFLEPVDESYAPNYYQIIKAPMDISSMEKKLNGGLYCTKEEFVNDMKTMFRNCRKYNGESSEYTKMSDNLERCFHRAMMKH
From the text: IC50 Measurements for Inhibitors Using CECR2 TR-FRET Binding Assay
His/Flag epitope tagged CECR2424-538 was cloned, expressed, and purified to homogeneity.

TAF1-BD2 = TAF1-BD2 (Homo sapiens, UniProt P21675); test: TAF1-BD2 TR-FRET binding assay; details: Assay: TAF-1; biotinylated probe compound 1000, TR-FRET
Protocol: Specifically, in a 384 well ProxiPlate TAF1-BD2 (6 nM final) was combined with biotin-ligand (50 nM final) in 50 mM HEPES (pH 7.5), 50 mM NaCl, 1 mM TCEP, 0.01% (w/v) BSA, and 0.008% (w/v) Brij-35 either in the presence of DMSO (final 0.2% DMSO) or compound dilution series in DMSO. After 10 minutes incubation at room temperature, a mixture Eu-W1024 Anti-6×His antibody (Perkin Elmer AD0110) and SureLight™ Allophycocyanin-Streptavidin (APC-SA, Perkin Elmer CR130-100) were added to a final concentrations of 0.2 nMolar antibody and 25 nMolar APC-SA, respectively. After twenty minutes of equilibration, the plates were read on an Envision instrument and IC50s calculated using a four parameter non-linear curve fit.

| Structure (SMILES) | pIC50 (BRD4(BD1)) | further results |
| --- | --- | --- |
| Cn1cc(-c2ccccc2)c2cc[nH]c2c1=O [Example 1, 6-methyl-4-phenyl-1H-pyrrolo[2,3-c]pyridin-7(6H)-one] | 6.27 |  |
| Cn1cc(-c2ccc3c(c2)CC(=O)N3)c2cc[nH]c2c1=O [Example 2, 6-methyl-4-(2-oxoindolin-5-yl)-1H-pyrrolo[2,3-c]pyridin-7-one] | 6.68 |  |
| COCCNC(=O)c1ccc(-c2cn(C)c(=O)c3[nH]ccc23)cc1 [Example 3, N-(2-methoxyethyl)-4-(6-methyl-7-oxo-1H-pyrrolo[2,3-c]pyridin-4-yl)benzamide] |  | pIC50 (BRD9): 7.62 |
| Cn1cc(-c2ccc3c(c2)CCCN3C(=O)OC(C)(C)C)c2cc[nH]c2c1=O [Example 4, tert-butyl 6-(6-methyl-7-oxo-1H-pyrrolo[2,3-c]pyridin-4-yl)-3,4-dihydro-2H-quinoline-1-carboxylate] | 6.96 |  |
| Cn1cc(-c2ccc3c(c2)N(C(=O)OC(C)(C)C)CCC3)c2cc[nH]c2c1=O [Example 5, tert-butyl 7-(6-methyl-7-oxo-1H-pyrrolo[2,3-c]pyridin-4-yl)-3,4-dihydro-2H-quinoline-1-carboxylate] |  | pIC50 (BRD9): 6.89 |
| Cn1cc(-c2ccc(NC(=O)OC(C)(C)C)cc2)c2cc[nH]c2c1=O [Example 6, tert-butyl N-[4-(6-methyl-7-oxo-1H-pyrrolo[2,3-c]pyridin-4-yl)phenyl]carbamate] |  | pIC50 (BRD9): 7.07 |
| COCCC(=O)Nc1ccc(-c2cn(C)c(=O)c3[nH]ccc23)cc1 [Example 7, 3-methoxy-N-[4-(6-methyl-7-oxo-1H-pyrrolo[2,3-c]pyridin-4-yl)phenyl]propanamide] |  | pIC50 (CECR2): 6.77 |
| Cn1cc(-c2ccc3c(c2)N2C(=O)CCC2C(=O)N3)c2cc[nH]c2c1=O (stereo not shown) [Example 9, 8-(6-methyl-7-oxo-6,7-dihydro-1H-pyrrolo[2,3-c]pyridin-4-yl)-3,3a-dihydropyrrolo[1,2-a]quinoxaline-1,4(2H,5H)-dione] | 6.51 |  |
| CC1Nc2cc(-c3cn(C)c(=O)c4[nH]ccc34)ccc2NC1=O (stereo not shown) [Example 10, 3-methyl-6-(6-methyl-7-oxo-1H-pyrrolo[2,3-c]pyridin-4-yl)-3,4-dihydro-1H-quinoxalin-2-one] | 6.96 |  |
| CC1CNc2cc(-c3cn(C)c(=O)c4[nH]ccc34)ccc2NC1=O (stereo not shown) [Example 11, 3-methyl-7-(6-methyl-7-oxo-1H-pyrrolo[2,3-c]pyridin-4-yl)-1,3,4,5-tetrahydro-1,5-benzodiazepin-2-one] |  | pIC50 (BRD9): 7.51 |
| Cn1cc(-c2ccc3c(c2)NCCC(=O)N3)c2cc[nH]c2c1=O [Example 12, 7-(6-methyl-7-oxo-1H-pyrrolo[2,3-c]pyridin-4-yl)-1,3,4,5-tetrahydro-1,5-benzodiazepin-2-one] |  | pIC50 (BRD9): 7.60 |
| CC1CC(=O)Nc2ccc(-c3cn(C)c(=O)c4[nH]ccc34)cc2N1 (stereo not shown) [Example 13, 4-methyl-7-(6-methyl-7-oxo-1H-pyrrolo[2,3-c]pyridin-4-yl)-1,3,4,5-tetrahydro-1,5-benzodiazepin-2-one] | 6.77 |  |
| CC(C)c1nc2cc(-c3cn(C)c(=O)c4[nH]ccc34)ccc2[nH]c1=O [Example 14, 3-isopropyl-6-(6-methyl-7-oxo-1H-pyrrolo[2,3-c]pyridin-4-yl)-1H-quinoxalin-2-one] | 6.96 |  |
| Cn1cc(-c2ccc3c(c2)N2CCCC2CC(=O)N3)c2cc[nH]c2c1=O (stereo not shown) [Example 15, 2-(6-methyl-7-oxo-1H-pyrrolo[2,3-c]pyridin-4-yl)-5,7,7a,8,9,10-hexahydropyrrolo[2,1-d][1,5]benzodiazepin-6-one] | 7.09 |  |
| CC1Oc2cc(-c3cn(C)c(=O)c4[nH]ccc34)ccc2NC1=O (stereo not shown) [Example 16, 2-methyl-7-(6-methyl-7-oxo-1H-pyrrolo[2,3-c]pyridin-4-yl)-4H-1,4-benzoxazin-3-one] |  | pIC50 (CECR2): 7.44 |
| Cn1cc(-c2ccc3c(c2)NC(c2cccs2)CC(=O)N3)c2cc[nH]c2c1=O (stereo not shown) [Example 17, 7-(6-methyl-7-oxo-1H-pyrrolo[2,3-c]pyridin-4-yl)-4-(2-thienyl)-1,3,4,5-tetrahydro-1,5-benzodiazepin-2-one] | 7.24 |  |
| CN(C)C(=O)c1ccc(-c2cn(C)c(=O)c3[nH]ccc23)cc1 [Example 18, N,N-dimethyl-4-(6-methyl-7-oxo-1H-pyrrolo[2,3-c]pyridin-4-yl)benzamide] |  | pIC50 (CECR2): 6.14 |
| CCCn1cc(-c2cccc(C(=O)N(C)C)c2)c2cc[nH]c2c1=O [Example 19, N,N-dimethyl-3-(7-oxo-6-propyl-1H-pyrrolo[2,3-c]pyridin-4-yl)benzamide] |  | pIC50 (BRD9): 6.62 |
| CCn1cc(-c2cccc(C(=O)N(C)C)c2)c2cc[nH]c2c1=O [Example 20, 3-(6-ethyl-7-oxo-1H-pyrrolo[2,3-c]pyridin-4-yl)-N,N-dimethyl-benzamide] |  | pIC50 (CECR2): 5.89 |
| Cn1cc(-c2cccc(C(N)=O)c2)c2cc[nH]c2c1=O [Example 21, 3-(6-methyl-7-oxo-1H-pyrrolo[2,3-c]pyridin-4-yl)benzamide] | 6.74 |  |

| Structure (SMILES) | pIC50 (BRD4(BD1)) | further results |
| --- | --- | --- |
| Cn1cc(-c2cccc(C#N)c2)c2cc[nH]c2c1=O [Example 23, 3-(6-methyl-7-oxo-1H-pyrrolo[2,3-c]pyridin-4-yl)benzonitrile] | 6.82 |  |
| CNC(=O)c1cccc(-c2cn(C)c(=O)c3[nH]ccc23)c1 [Example 24, N-methyl-3-(6-methyl-7-oxo-1H-pyrrolo[2,3-c]pyridin-4-yl)benzamide] |  | pIC50 (TAF1-BD2): 7.02 |
| Cn1cc(-c2ccc(CO)cc2)c2cc[nH]c2c1=O [Example 25, 4-[4-(hydroxymethyl)phenyl]-6-methyl-1H-pyrrolo[2,3-c]pyridin-7-one] | 6.15 |  |
| CN1CCN(C(=O)c2ccc(-c3cn(C)c(=O)c4[nH]ccc34)cc2)CC1=O [Example 26, 6-methyl-4-(4-(4-methyl-3-oxopiperazine-1-carbonyl)phenyl)-1H-pyrrolo[2,3-c]pyridin-7(6H)-one] |  | pIC50 (CECR2): 6.62 |
| Cn1cc(-c2ccc(C(=O)N3CC(F)C3)cc2)c2cc[nH]c2c1=O [Example 27, 4-[4-(3-fluoroazetidine-1-carbonyl)phenyl]-6-methyl-1H-pyrrolo[2,3-c]pyridin-7-one] | 7.08 |  |
| Cn1cc(-c2ccc(C(=O)N3CC(F)(F)C3)cc2)c2cc[nH]c2c1=O [Example 28, 4-[4-(3,3-difluoroazetidine-1-carbonyl)phenyl]-6-methyl-1H-pyrrolo[2,3-c]pyridin-7-one] |  | pIC50 (CECR2): 6.89 |
| Cn1cc(-c2ccc(C(=O)N3CCCC3)cc2)c2cc[nH]c2c1=O [Example 29, 6-methyl-4-[4-(pyrrolidine-1-carbonyl)phenyl]-1H-pyrrolo[2,3-c]pyridin-7-one] | 6.55 |  |
| CC1CCN(C(=O)c2ccc(-c3cn(C)c(=O)c4[nH]ccc34)cc2)CC1 [Example 31, 6-methyl-4-[4-(4-methylpiperidine-1-carbonyl)phenyl]-1H-pyrrolo[2,3-c]pyridin-7-one] | 6.77 |  |
| CC(=O)N1CCN(C(=O)c2ccc(-c3cn(C)c(=O)c4[nH]ccc34)cc2)CC1 [Example 32, 4-[4-(4-acetylpiperazine-1-carbonyl)phenyl]-6-methyl-1H-pyrrolo[2,3-c]pyridin-7-one] | 6.49 |  |
| Cn1cc(-c2ccc(C(=O)N3CCC(C(N)=O)CC3)cc2)c2cc[nH]c2c1=O [Example 33, 1-[4-(6-methyl-7-oxo-1H-pyrrolo[2,3-c]pyridin-4-yl)benzoyl]piperidine-4-carboxamide] | 6.59 |  |
| Cn1cc(-c2ccc(C(=O)Nc3cccnc3)cc2)c2cc[nH]c2c1=O [Example 34, 4-(6-methyl-7-oxo-1H-pyrrolo[2,3-c]pyridin-4-yl)-N-(3-pyridyl)benzamide] | 7.29 |  |
| Cn1cc(-c2ccc(C(=O)Nc3ccccc3)cc2)c2cc[nH]c2c1=O [Example 35, 4-(6-methyl-7-oxo-1H-pyrrolo[2,3-c]pyridin-4-yl)-N-phenyl-benzamide] |  | pIC50 (CECR2): 7.12 |
| CN(C(=O)c1ccc(-c2cn(C)c(=O)c3[nH]ccc23)cc1)c1ccccc1 [Example 36, N-methyl-4-(6-methyl-7-oxo-1H-pyrrolo[2,3-c]pyridin-4-yl)-N-phenyl-benzamide] | 6.47 |  |
| CN(CC#N)C(=O)c1ccc(-c2cn(C)c(=O)c3[nH]ccc23)cc1 [Example 38, N-(cyanomethyl)-N-methyl-4-(6-methyl-7-oxo-1H-pyrrolo[2,3-c]pyridin-4-yl)benzamide] | 6.70 |  |
| Cn1cc(-c2ccc(C(C)(C)O)cc2)c2cc[nH]c2c1=O [Example 39, 4-[4-(1-hydroxy-1-methyl-ethyl)phenyl]-6-methyl-1H-pyrrolo[2,3-c]pyridin-7-one] |  | pIC50 (BRD9): 7.68 |
| CC(C)(O)c1ccc(-c2cn(C3CC3)c(=O)c3[nH]ccc23)cc1 [Example 41, 6-cyclopropyl-4-(4-(2-hydroxypropan-2-yl)phenyl)-1H-pyrrolo[2,3-c]pyridin-7(6H)-one] |  | pIC50 (BRD9): 6.96 |
| CN1CCC(c2ccc(-c3cn(C)c(=O)c4[nH]ccc34)cc2)CC1 [Example 42, 6-methyl-4-[4-(1-methyl-4-piperidyl)phenyl]-1H-pyrrolo[2,3-c]pyridin-7-one] |  | pIC50 (BRD9): 7.28 |
| CN1CCc2cc(-c3cn(C)c(=O)c4[nH]ccc34)ccc2C1 [Example 44, 6-methyl-4-(2-methyl-3,4-dihydro-1H-isoquinolin-6-yl)-1H-pyrrolo[2,3-c]pyridin-7-one] |  | pIC50 (CECR2): 7.27 |
| CN1CCC(Cc2ccc(-c3cn(C)c(=O)c4[nH]ccc34)cc2)CC1 [Example 45, 6-methyl-4-[4-[(1-methyl-4-piperidyl)methyl]phenyl]-1H-pyrrolo[2,3-c]pyridin-7-one] |  | pIC50 (BRD9): 7.19 |
| Cc1cc2c(-c3cccc(C(=O)N(C)C)c3)cn(C)c(=O)c2[nH]1 [Example 47, 3-(2,6-dimethyl-7-oxo-1H-pyrrolo[2,3-c]pyridin-4-yl)-N,N-dimethyl-benzamide] |  | pIC50 (CECR2): 6.89 |
